{
  "source": "patent US7863444B2",
  "about": "“4-aminopyrrolopyrimidines as kinase inhibitors” (Abbott Laboratories, priority 1997, dated 2011)",
  "data": [
    {"units": {"melting point": "°C"}, "values": [
      {"compound": "NCc1c(-c2ccc(Oc3ccccc3)cc2)c2c(N)ncnc2n1C1CCCC1", "note": "[Example 165, 6-aminomethyl-7-cyclopentyl-5-(4-phenoxyphenyl)-7H-pyrrolo[2,3-d]pyrimidin-4-ylamine]", "melting point": "196.5 to 197.5"},
      {"compound": "Nc1ncnc2c1c(-c1ccc(Oc3ccc(OCCO)cc3)cc1)cn2CCO", "note": "[Example 169, 7-(2-Hydroxyethyl)-5-{4-[4-(2-hydroxyethoxy)phenoxy]phenyl}pyrrolo[2,3-d]-pyrimidin-4-ylamine]", "melting point": "166 to 166.5"},
      {"compound": "Nc1ncnc2c1c(-c1ccc(Oc3ccccc3)cc1)cn2C1CCC(O)CC1", "note": "(centres unmarked) [Example 175, 4-[4-amino-5-(4-phenoxyphenyl)-7H-pyrrolo[2,3-d]pyrimidin-7-yl]cyclohexanol]", "melting point": "199 to 200"},
      {"compound": "CC(C)(C)n1cc(-c2ccc(N(C=O)c3ccccc3)cc2)c2cncnc21", "note": "[Example 166, 7-tertbutyl-5-(N-formyl-4-phenylaminophenyl)pyrrolo[2,3-d]pyrimidine]", "melting point": "163 to 164"},
      {"compound": "CC(C)n1cc(-c2ccc(Oc3ccccc3)c(CO)c2)c2c(N)ncnc21", "note": "[Example 163, 5-[4-amino-7-isopropyl-7H-pyrrolo[2,3-d]pyrimidin-5-yl]-2-phenoxybenzylalcohol]", "melting point": "92 to 94"},
      {"compound": "CC(C)S(=O)(=O)n1cc(-c2ccc(Oc3ccccc3)cc2)c2c(N)ncnc21", "note": "[Example 173, 7-isopropylsulphonyl-5-(4-phenoxyphenyl)-7H-pyrrolo[2,3-d]pyrimidin-4-ylamine]", "melting point": "162 to 162.5"},
      {"compound": "CC(C)n1cc(-c2ccc(C=O)cc2)c2c(N)ncnc21", "note": "[Example 160, 4-(4-amino-7-isopropyl-7H-pyrrolo[2,3-d]pyrimidin-5-yl)benzaldehyde]", "melting point": "198 to 200"},
      {"compound": "Nc1ncnc2c1c(-c1ccc(Oc3ccccc3)cc1)cn2C1CC2CC(O)CC2C1", "note": "(centres unmarked) [Example 174, 7-[4-amino-5-(4-phenoxyphenyl)-7H-pyrrolo[2,3-d]pyrimidin-7-yl]bicyclo[3.3.0]octan-3-ol]", "melting point": "193 to 194"}
    ]}
  ]
}
